Measurements as given in US7935814B2, “Nitroguanosine-3′ 5′-cyclic monophosphate compound and protein kinase G activating agent” (Kumamoto University, priority 2005, dated 2011).

Assays:
[1] = target: T1, protein kinase G (Homo sapiens, UniProt Q13976); experiment: Effect of activating protein kinase G: phosphorylation of Ser 157 of VASP detected by Western blotting in human uterine smooth muscle cells; assay type: cell-based; conditions: for 50-kDa band of VASP having the phosphorylated Ser at position 157 (anti-VASP (Ser157) antibody): 1 mM compound, 5, 10, 15 and 30 minutes after addition, no bands at 0 minutes
T1 construct: host or cells: human uterine smooth muscle cells
T1 sequence (Q13976 1-671): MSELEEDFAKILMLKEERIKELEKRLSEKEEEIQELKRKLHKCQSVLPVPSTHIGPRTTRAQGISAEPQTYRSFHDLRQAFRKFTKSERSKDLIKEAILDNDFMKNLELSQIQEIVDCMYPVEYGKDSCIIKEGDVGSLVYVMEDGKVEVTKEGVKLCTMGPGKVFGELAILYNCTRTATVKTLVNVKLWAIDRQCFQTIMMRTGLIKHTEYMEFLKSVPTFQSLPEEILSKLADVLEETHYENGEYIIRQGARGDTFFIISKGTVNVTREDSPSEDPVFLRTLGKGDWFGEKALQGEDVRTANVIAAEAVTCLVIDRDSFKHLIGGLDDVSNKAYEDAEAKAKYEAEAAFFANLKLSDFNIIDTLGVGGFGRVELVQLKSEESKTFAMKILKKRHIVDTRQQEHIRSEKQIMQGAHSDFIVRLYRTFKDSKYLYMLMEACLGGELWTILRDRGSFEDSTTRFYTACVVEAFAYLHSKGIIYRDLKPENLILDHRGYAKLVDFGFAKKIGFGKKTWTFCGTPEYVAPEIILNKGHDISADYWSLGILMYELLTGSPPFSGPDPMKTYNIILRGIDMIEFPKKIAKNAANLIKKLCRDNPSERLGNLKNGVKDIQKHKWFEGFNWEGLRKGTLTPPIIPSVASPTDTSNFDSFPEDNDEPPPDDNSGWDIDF
Description: Intracellular signaling conducted by 8-nitroguanosine-3′,5′-cyclic monophosphate through mediation of protein kinase G was analyzed according to the method of Sergei D. Rybalkin et al (J. Biol. Chem. 277 3310-3317, 2002). Specifically, phosphorylation of Ser at position 157 of VASP (Vasodilator Stimulated Phosphoprotein), a substrate protein of protein kinase G, was detected by Western blotting. Specifically, human uterine smooth muscle cells (produced by CAMBREX) were cultured in Dulbecco's Modified Eagle Medium (DMEM-10% FCS) containing 10% fetal calf serum (FCS). The cells were seeded on a 6-well plate (produced by Falcon) at 4×10^5 cells/well and then cultured for 24 hours. The resultant was washed 3 times using phosphate buffered saline (PBS). Subsequently, DMEM-10% FCS containing 1 mM 8-nitroguanosine-3′,5′-cyclic monophosphate and 1 mM 8-Br-cGMP (produced by SIGMA) was added to the cells. Medium was immediately removed at 5 minutes, 10 minutes, 15 minutes, and 30 minutes after addition, followed by 2 instances of washing with PBS. A cell lysis solution (20 mM Tris-HCl (pH 8.0), 0.15 M NaCl, 1 mM EDTA, 1 mM EGTA, 1% TritonX-100, 2.5 mM sodium pyrophosphate, 1 mM β-glycerolphosphate, […], 1 μg/ml leupeptin, and 1 mM PMSF) was added. The resultant was allowed to stand on ice for 5 minutes, recovered using a cell scraper, transferred into an Eppendorf tube, and then ultrasonicated twice (5 seconds each). […] The protein concentration of the soluble fraction of the supernatant was determined using a BCA protein assay (produced by PIERCE). […] The resultant was then washed 3 times with TBST (10 minutes each), chemiluminescence was detected using LAS 1000plus (produced by FujiFilm) and ECL-plus (produced by Amersham Biosciences) as color developers, and then image files were incorporated. […] As is understood from the results in FIG. 1, no bands were detected at 0 minutes, but a 50-kDa band of VASP having the phosphorylated Ser at position 157 was detected at 5, 10, 15, and 30 minutes after addition of 8-nitroguanosine-3′,5′-cyclic monophosphate or 8-Br-cGMP.

[2] = test system: excised rat carotid artery ring specimen; experiment: Effect of relaxing vascular smooth muscle: phenylephrine pre-contracted excised rat carotid artery ring specimen, Magnus equipment; conditions: for concentration required for exertion of the tension variation of 0.1 g: 100 nM phenylephrine pre-contraction, resting tension 1 g
Description: The effect of relaxing vascular smooth muscle exerted by 8-nitroguanosine-3′,5′-cyclic monophosphate was determined according to the method of Magnus R (Ergen Physiol. 2, 637-672, 1903) by causing phenylephrine, which is an α1 adrenergic receptor agonist, to act to cause pre-contraction of an excised rat carotid artery ring specimen, adding 8-nitroguanosine-3′,5′-cyclic monophosphate at different concentrations, and then determining the resulting relaxing effect using Magnus laboratory equipment, Specifically, an SD rat (male, 10-week-old, body weight of 350 g, CHARLES RIVER LABORATORIES JAPAN, INC.) was sacrificed under ether anesthesia, a carotid artery was excised, a stainless-steel bar was inserted into the intravascular lumen, and then endothelial cells were removed through scraping, thereby preparing ring vascular specimens of approximately 4 mm each. The vascular specimens were immersed in 3 ml of a Krebs buffer (1.2 mM NaHPO4, 120 mM NaCl, 5.9 mM KCl, 2.5 mM CaCl2, 1.2 mM MgCl2, 15.5 mM NaHCO3, and 11.5 mM glucose). The Krebs buffer used herein had been previously kept at 37° C., aerated with 95% O2+5% CO2 for oxygenation, and adjusted to pH of 7.4. The ring vascular specimens were fixed within a microtissue organ bath MTOB-2 (produced by Labo Support Co., Ltd.). Isometric tension was measured at the resting tension of 1 g using an isometric transducer and an amplifier for such transducer (AG-621G Nihon Kohden Corporation). A PowerLab data acquisition apparatus (AD instruments) was used for data analysis. 1-Phenylephrine hydrochloride (produced by Wako Pure Chemical Industries, Ltd.) was added at a final concentration of 100 nM to the Krebs buffer, so as to sufficiently contract the blood vessels. 8-Nitroguanosine-3′,5′-cyclic monophosphate and 8-Br-cGMP were each cumulatively administered at final concentrations of 1 μM, 3 μM, 10 μM, 30 μM, 100 μM, and 300 μM. The relaxing action on vascular smooth muscle was determined. […] In particular, whereas the 8-nitroguanosine-3′,5′-cyclic monophosphate concentration required for exertion of the tension variation of 0.1 g was 10 μM, the 8-Br-cGMP concentration required for the same was 30 μM.

[3] = endothelium-removed rat carotid artery ring

Q: Which “50-kDa band of VASP having the phosphorylated Ser at position 157 (anti-VASP (Ser157) antibody)” value [1] does the source give for `Nc1nc2c(nc(Br)n2[C@@H]2O[C@@H]3COP(=O)(O)O[C@H]3[C@H]2O)c(=O)[nH]1` [8-Br-cGMP, 8-bromoguanosine-3′,5′-cyclic monophosphate, reference compound] here?
A: Its value is “detected”.

Q: And the “concentration required for exertion of the tension variation of 0.1 g” value [2, 3]?
A: The value was 30 µM.

Q: Which results are given for `Nc1nc2c(nc([N+](=O)[O-])n2C2O[C@@H]3COP(=O)(O)OC3C2O)c(=O)[nH]1` (stereo partly shown) [8-nitroguanosine-3′,5′-cyclic monophosphate]?
A: 50-kDa band of VASP having the phosphorylated Ser at position 157 (anti-VASP (Ser157) antibody) [1]: detected; 50-kDa band shifted to the higher molecular weight side because of phosphorylation (antibody recognizing the entire VASP molecule) ([1]; 1 mM compound, at 5 minutes or more after addition, almost no 50-kDa band at 0 minutes): detected in all cases; concentration required for exertion of the tension variation of 0.1 g [2, 3]: 10 µM; relaxing effect on blood vessel contracted using phenylephrine ([2]; endothelium-removed rat carotid artery ring, 100 nM phenylephrine, cumulative 1-300 μM): exerted a relaxing effect; effect of relaxing vascular smooth muscle relative to 8-Br-cGMP ([2]; rat carotid artery ring, from concentrations giving tension variation of 0.1 g): approximately 3 times
